Where a name gives a salt, the structure may show the parent alone. Read-outs that look alike come from different tables or passages of the source.
Experiments:
[1] = tested on: dopamine (DA) receptors in the basal ganglia (corpus striatum); test: Stereotyped licking and gnawing behavior rating in the rat; type: in vivo; details: for SB Score, Percent of Maximum / SB Score (stereotyped behaviors): Table 12, 3 mg/kg ip; for SB Score (stereotyped behaviors): max. possible score 18.0; for stereotyped behavior (in words): rat, in vivo
Excerpt: Stereotypy: The mean stereotyped licking and gnawing behavioral rating scheme developed by Tarsy and Baldessarini^8 was used. […]
Stereotypy scores were rated for one hour as described in […]

[2] = tested on: dopamine (DA) receptors in the limbic system; test: Locomotor activity (spontaneous or aroused by (-)APO / (-)NPA), electronic activity monitor; type: in vivo, rat; details: for interaction with (-)APO locomotor arousal (in words) / EAM Score / EAM Score, Percent of Control: Table 11; for interaction with (-)APO locomotor arousal (in words): 3 mg/kg ip with (-)APO; for EAM Score: 60 min; for effect on locomotor-arousal activity (in words): with or without (-) isomer; for increase of the locomotor stimulatory effect of APO: with (-)APO; for Locomotion: Table 4
Experimental: (§1) Activity: Overall motor activity was measured by use of the self-recording Stoelting electronic activity monitor method described previously by Stewart, Campbell, Sperk, and Baldessarini^9. Total activity is obtained by setting monitor sensitivity so as to detect both locomotion and small movements (such as grooming, sniffing, and chewing) as would be prominent in stereotyped responses that tend to diminish locomotion and increase sniffing, licking, and chewing movements. Locomotor activity is detected selectively by setting monitor sensitivity to detect large, locomotor movements, and to minimize smaller movements already described.
Rats (mean N=6 per condition) were tested for locomotor activity for 60 min following a single dose of (-)APO (0.3 mg/kg, SC), or its vehicle ("placebo" condition). The S(+) isomers were administered in a range of doses from 0 or 0.1 to 30 mg/kg, SC immediately following injection of (-)APO or its vehicle. Data are presented in FIG. 2 as mean EAM activity counts per hour SEM. In that figure, the dashed line labeled "control" represents the mean activity of rats given vehicle only and no aporphine (SD values are indicated by parallel light lines above and below the control mean).
Test agents (11substituted-N--propylnoraporphine isomers were given at a
dose of 3 mg/kg, ip (in 2 ml/kg) just prior to (-)apomorphine (APO, at 0.
mg/kg, ip, in 1 ml/kg) to rats (N = 6) tested in an electronic activity

[3] = tested on: DA in the limbic system (nucleus accumbens septi); test: Arousal (locomotor activity) induced by DA injected into nucleus accumbens septi; type: in vivo, rat; details: for activity counts (arousal induced by 16 μg DA in accumbens): 30 min, DA control 238 ± 38; for ED50: Rattus norvegicus; for ED50 / ID50: DA 16 μg in accumbens; for ID50: hydrochloride
Experimental: An experiment shown in Table 9 involves testing the effects of S(+) isomers of apomorphine (APO) and N-propylnorapomorphine (NPA) given systemically (intraperitoneally, ip), as well as S(+) methylenedioxy-N-propylnorapomorphine (MDO-NPA) given ip or orally (po, by orogastric intubation). […]. […] Activity was monitored for 30 min after injection of DA into the brain, which was done at 10 min after systemic dosing with an S(+)aporphine test compound.
Data are mean activity counts ± SEM (N = 6) for rats given DA into the
medial accumbens after pretreatment with an inhibitor of monoamine oxidas
(MA0), and monitored on EAM for 30 min (aporphine given 10 min before DA
systemicallyintraperitoneally [ip] or orally [po].

[4] = tested on: DA in the corpus striatum (basal ganglia); test: Head posture (contralateral head deviation) after intrastriatal DA; type: in vivo, rat
[5] = tested on: dopamine (DA) receptors in the limbic system; test: Effect of metabolic inhibitor SKF-525A on locomotor effect of (+)MDO-NPA; type: in vivo, rat
Experimental: Rats (N = 6) per condition) were tested by monitoring locomotor activity
on an electronic monitor under higharousal conditions (7-8 PM during earl
"lights out" phase, and singly in previously occupied test cages).
Pretreatment was saline (control) or the microsomal inhibitor SKF525A (40
mg/kg, ip). At 30 min later, saline or (+)MDONPA (3 mg/kg, ip) was given,
and the rats were monitored for the next 60 min. Data are activity counts
per hour, as means ± SEM ([*] = significant by ttest at p < 0.05). Th

[6] = tested on: dopamine (DA) receptors in the limbic system and basal ganglia; test: Total motor activity, electronic activity monitor (EAM); type: in vivo, rat; details: Table 4
Experimental: as §1
All data presented in the Tables below are expressed as the mean results from 4-6 rats per condition, ±S.E.M. Stereotypy is expressed in rating units (maximum=3.0) and activity is expressed in arbitrary units of percent change, derived from EAM counts per unit time, relative to activity in control (saline) animals set at zero.
All the posttreatment doses of (+)APO were 3.0 mg/kg, s.c. The data
All posttreatment doses of (+)NPA were 3 mg/kg, s.c. The data are similar

[7] = tested on: dopamine (DA) receptors in the limbic system; test: Locomotor activity (spontaneous or aroused by (-)APO / (-)NPA), electronic activity monitor; type: in vivo, rat; details: Table 4; (-)APO 3.0 mg/kg + saline
[8] = test agent 3 mg/kg ip just prior to (-)APO ip
[9] = test agent 3 mg/kg ip just prior to (-)APO ip, * p < 0.005
[10] = intrastriatal DA 16 μg, 3 mg/kg ip
[11] = intrastriatal DA 16 μg, 3 mg/kg po
[12] = SKF-525A 40 mg/kg ip pretreatment, then S(+)MDO-NPA 3 mg/kg ip
[13] = intrastriatal dopamine 16 μg + systemic saline
[14] = SKF-525A 40 mg/kg ip, then saline

With CCCN1CCc2cccc3c2[C@@H]1Cc1cccc(O)c1-3 [(+)11-OH--N--propylnoraporphine, S(+) 11-hydroxy-N-propylnoraporphine hydrochloride and hydrobromide] the “SB Score, Percent of Maximum” value [1] was 6.9% of Maximum, the “SB Score (stereotyped behaviors)” value ([1]; one hour) was 1.3 ± 0.75 and the “stereotyped behavior (in words)” value [1] was “virtually inactive”. The “interaction with (-)APO locomotor arousal (in words)” value (“interaction” for short) ([2]; listed as S(+)11-hydroxy-N-propylnoraporphine, hydrobromide, 3 mg/kg) was “strong inhibitory interaction with APO”, the “interaction” value ([2]; listed as S(+)11hydroxy-N--propylnoraporphine, hydrobromide, 3 mg/kg) was “significant inhibition of arousal” and the “EAM Score” value [2, 8] was 218 ± 33. The “EAM Score, Percent of Control” value [2, 9] was 43% of Control and the “effect on locomotor-arousal activity (in words)” value [2] was “exerted similarly selective actions as (+)NPA”.
For CCCN1CCc2cccc3c2[C@@H]1Cc1cccc(OC)c1-3 [(+)11-methoxy-N--propylnoraporphine, S(+) 11-Methoxy-N-propylnoraporphine hydrobromide], the “SB Score, Percent of Maximum” value [1] was 0.0% of Maximum, the “SB Score (stereotyped behaviors)” value ([1]; one hour) was 0 ± 0 and the “stereotyped behavior (in words)” value [1] was “inactive”. For the same compound, the “interaction” value [2] was “devoid of activity”, the “EAM Score” value [2, 8] was 528 ± 25 and the “EAM Score, Percent of Control” value [2, 9] was 105% of Control.
In the case of CCCN1CCc2cccc3c2[C@@H]1Cc1ccc2c(c1-3)OCO2 [(+)MDO-NPA, S(+) 10,11-methylenedioxy-N-propylnoraporphine hydrochloride], the “activity counts (arousal induced by 16 μg DA in accumbens)” value (from here on “activity counts”) ([3]; 0.3 mg/kg ip) is reported as 122 ± 16 activity counts, the “activity counts” value ([3]; 0.3 mg/kg po) is reported as 149 ± 23 activity counts and the “activity counts” value ([3]; 1.0 mg/kg ip) is reported as 54 ± 9 activity counts. For the same compound, the “activity counts” value ([3]; 1.0 mg/kg po) was 74 ± 17 activity counts, the “activity counts” value ([3]; 3.0 mg/kg ip) was 36 ± 7 activity counts and the “activity counts” value ([3]; 3.0 mg/kg po) was 49 ± 16 activity counts. For the same compound, the ED50 ([3]; ip, read-out: ID50, ip) was 0.27 mg/kg, the ED50 ([3]; po, read-out: ID50, po) was 0.51 mg/kg and the ID50 ([3]; ip) was 0.3 mg/kg. The ID50 ([3]; po) was 0.5 mg/kg, the “effect on arousal induced by DA in accumbens (in words)” value ([3]; rat, in vivo) was “also active after systemic oral administration, selectively, against DA placed in the accumbens but not the striatum” and the “times more potent than (+)APO as inhibitor of DA in the limbic system” value ([3]; vs (+)APO) was 13 times. For the same compound, the “Contralateral Head Deviation, Percent of Total” value [4, 10] was 71.7% of Total, the “Contralateral Head Deviation, Time” value [4, 10] was 512 ± 96 s and the “Contralateral Head Deviation, Percent of Total” value [4, 11] was 70.1% of Total. The “Contralateral Head Deviation, Time” value [4, 11] was 505 ± 89 s, the “Locomotor Activity” value [5, 12] was 3445 ± 597 counts/hr and the “Locomotor Activity (%)” value [5, 12] was 82%. The “Locomotor Activity” value ([5]; saline pretreatment, then S(+)MDO-NPA 3 mg/kg ip) was 1828 ± 265 counts/hr and the “Locomotor Activity (%)” value ([5]; saline pretreatment, then S(+)MDO-NPA 3 mg/kg ip, * p < 0.05) was 43%.
For CCCN1CCc2cccc3c2[C@H]1Cc1cccc(O)c1-3 [(-)11-OH--N--propylnoraporphine, R(-)11-hydroxy-N-propylnoraporphine], the “SB Score, Percent of Maximum” value [1] was 76.7% of Maximum, the “SB Score (stereotyped behaviors)” value ([1]; one hour) was 13.8 ± 0.75 and the “stereotyped behavior (in words)” value ([1]; listed as R(-)11-hydroxy-N-- propylnoraporphine) was “very active”. For the same compound, the “stereotyped behavior (in words)” value ([1]; listed as R(-)11-hydroxy-N-propylnoraporphine) was “striking activity as a DA agonist”, the “increase of the locomotor stimulatory effect of APO” value ([2]; 3 mg/kg) was 51% and the “EAM Score” value [2, 8] was 764 ± 58. For the same compound, the “EAM Score, Percent of Control” value [2, 9] was 151% of Control.
For CCCN1CCc2cccc3c2[C@H]1Cc1cccc(OC)c1-3 [(-)11-methoxy-N--propylnoraporphine], the “SB Score, Percent of Maximum” value [1] was 36.1% of Maximum, the “SB Score (stereotyped behaviors)” value ([1]; one hour) was 6.5 ± 0.50 and the “stereotyped behavior (in words)” value ([1]; listed as 11-methoxy congener) was “moderately active”. The “stereotyped behavior (in words)” value ([1]; listed as R(-)11methoxy analog) was “had some activity”, the “increase of the locomotor stimulatory effect of APO” value ([2]; 3 mg/kg) was 14% and the “EAM Score” value [2, 8] was 574 ± 45. The “EAM Score, Percent of Control” value [2, 9] was 114% of Control.
For CN1CCc2cccc3c2[C@H]1Cc1ccc(O)c(O)c1-3 [(-)APO, R(-)apomorphine], the “mean control stereotypy score, % of maximum” value ([1]; (-)APO 0.3 mg/kg IP + vehicle) was 51.3 % of maximum, the “mean control stereotypy score” value ([1]; (-)APO 0.3 mg/kg IP + vehicle, one hour, maximum possible score 18.0) was 9.23 ± 0.43 and the “approximate ED50 (stereotyped behavior)” value ([1]; (-)APO, IP, rats) was about 0.3 mg/kg. The “Stereotypy Score” value ([1]; Table 1, (-) isomer 3 mg/kg, s.c., ± saline, maximum 3.0) was 3.0 ± 0.0 rating units, the “Stereotypy Score” value ([1]; Table 4, (-)APO 0.3 mg/kg + saline) was 1.62 ± 0.23 rating units and the “Stereotypy Score” value ([1]; Table 4, (-)APO 1.0 mg/kg + saline) was 2.09 ± 0.36 rating units. For the same compound, the “Stereotypy Score” value ([1]; Table 4, (-)APO 3.0 mg/kg + saline) was 2.92 ± 0.20 rating units, the “Total Activity” value ([6]; (-)APO 0.3 mg/kg + saline) was 42.2 ± 8.5 percent change and the “Total Activity” value ([6]; (-)APO 1.0 mg/kg + saline) was 51.9 ± 6.8 percent change. For the same compound, the “Total Activity” value ([6]; (-)APO 3.0 mg/kg + saline) was 75.3 ± 8.6 percent change, the Locomotion ([2]; (-)APO 0.3 mg/kg + saline) was 63.5 ± 12.3 percent change and the Locomotion ([2]; (-)APO 1.0 mg/kg + saline) was 75.8 ± 19.4 percent change. The “EAM Score, Percent of Control” value ([2]; (-)APO alone (control)) was 100% of Control, the “EAM Score” value ([2]; (-)APO alone (control), ip) was 505 ± 55 and the Locomotion [7] was 48.6 ± 9.3 percent change.
NCCc1ccc(O)c(O)c1 [DA, dopamine] was tested, and the “Contralateral Head Deviation, Percent of Total” value [4, 13] was 59.0% of Total and the “Contralateral Head Deviation, Time” value [4, 13] was 425 ± 53 s.
In the case of CN1CCc2cccc3c2[C@@H]1Cc1cccc(O)c1-3 [S(+) 11-hydroxyaporphine, S(+) 11-hydroxyaporphine (N-R=N-methyl)], the “effect on locomotor-arousal activity (in words)” value [2] is reported as “less active”.
For CCCC(C(=O)OCCN(CC)CC)(c1ccccc1)c1ccccc1 [SKF-525A], the “Locomotor Activity” value [5, 14] was 4777 ± 610 counts/hr and the “Locomotor Activity (%)” value [5, 14] was 113%.
